Entries after “also recorded” stand apart in the source; their conditions may differ.
How the values were obtained:
C-reactive protein (CRP) [1] = experiment: Example 4: CRP levels over time; assay type: in vivo, human; conditions: three subjects with systemic inflammation (CRP greater than 5 mg/L) on Day 1
Protocol: (§1) In addition to their standard care, subjects were administered three 30-minute inhalations per day of 160 ppm NO (with O2/air) for 10 working days (i.e., 5 days on treatment, 2 days off treatment, 5 days on treatment, for a total of 10 treatment days and 30 inhalations).
(§2) Secondary Endpoints—Efficacy: • Comparison of FEV1 improvement before and after NO treatment Observational Endpoints: • To determine the reduction in bacterial and fungal sputum load during each week of NO treatment compared to bacterial sputum load before NO treatment • Assess the improvement of lung function indices during and after NO intermittent inhalation treatment as determined by spirometry (i.e., FVC, FEV1, FEV1/FVC, forced expiratory flow 25% to 75% (FEF 25-75)) • Evaluate C-reactive protein (CRP) levels over time • Number of subjects with study drug related bleeding at any time point

[2] = test system: human subjects diagnosed with cystic fibrosis; experiment: Example 4: CF study, 160 ppm NO 30 min 3x daily for 10 treatment days; safety; assay type: in vivo
Protocol: as §1
A minimum time interval of 3.5 hours from the end of one treatment to the beginning of the next treatment was required.
As a safety measure, during NO administration, human subjects' MetHb and 02 saturation levels in the blood were monitored utilizing a commercial “off the shelf” co-oxymeter (Masimo Corporation Model RAD-57/RAD 87).
In the event of MetHb greater than 5% or O2 saturation less than or equal to 88%, treatment was temporarily discontinued, and measure repeated 30 minutes later. If value(s) had returned to above the safety threshold, the next inhalation was started according to protocol. In any case of a second episode of MeHb greater than 5%, study treatment was to be permanently discontinued.
Primary Endpoints—Safety and Tolerability: • Safety • Determine the MetHb levels during treatment with inhaled NO • Determine other AEs associated with inhaled NO • Tolerability • Proportion of subjects (%) who prematurely discontinued the study or study treatment for any reason • Proportion of subjects (%) who prematurely discontinued the study treatment due to AEs or SAEs • Proportion of subjects (%) who prematurely discontinued the study treatment due to AEs or SAEs associated with inhaled NO
All measured variables and derived parameters were listed individually and tabulated by descriptive statistics. For categorical variables, summary tables were provided giving sample size, absolute and relative frequency. For continuous variables, summary tables were provided giving sample size, arithmetic mean, SD, median, minimum and maximum and 95% CI for means of variables. For the ITT cohort, the LOCF approach was applied, when deemed appropriate, to account for missing data at or prior to study termination. Methemoglobin was summarized in appropriate descriptive tables. The percent of subjects with MetHb level greater than 5% was calculated per time point. Changes from baseline in MetHb levels were analyzed using Signed rank test for two means. Laboratory results were summarized in appropriate tables by time. Changes from baseline were calculated and presented as well.

[3] = test system: human subjects diagnosed with cystic fibrosis; experiment: Example 4: lung function indices by spirometry; assay type: in vivo
Protocol: as §1, §2
The Signed rank test for two means was applied for analyzing changes from baseline in continuous parameters: • FEV1% • Specific bacterial colonization (i.e., S. aureus, P. aeruginosa)

[4] = test system: human subjects diagnosed with, or suffering from CF; experiment: Example 1: FEV1 in CF subjects treated with 160 ppm NO; assay type: in vivo
Protocol: (§3) NO was administered via inhalation to nine clinically stable human subjects diagnosed with, or suffering from CF from two medical centers. Patients received three daily 30-minute treatments of 160 ppm NO with at least 3.5 hours between treatments, for 5 days per week over a two-weeks time period.
(§4) Preliminary efficacy measures included determination of microbial density in sputum and measurements of forced exhaled volume at 1 second (FEV1). Inflammation associated with C-reactive protein (CRP) levels was assessed as a secondary outcome measure. Other inflammation biomarkers, such as interleukins, were also monitored (data not shown).

A. fumigatus = experiment: Example 1: microbial density in sputum (CFU) during NO inhalation; assay type: in vivo; conditions: Patient 3 (CFSCH03)
Protocol: as §3, §4
(§5) Bacterial load was measured for exemplary, non-limiting selection of species that included, P. alcaligenes, methicillin-sensitive Staphylococcus aureus (MSSA), Achromobacter spp., A. fumigates, non-mucoid P. aeruginosa and mucoid P. aeruginosa.

Achromobacter spp. = experiment: as above; assay type: in vivo; conditions: Patient 3 (CFSCH03)
Protocol: as §3, §4, §5

nonmucoid P. aeruginosa = experiment: as above; assay type: in vivo; conditions: Patient 4 (CFSCH04)
Protocol: as §3, §4, §5

P. alcaligenes = experiment: as above; assay type: in vivo; conditions: Patient 1 (CFSCH01), by Day 9
Protocol: as §3, §4, §5

mucoid P. aeruginosa = experiment: as above; assay type: in vivo; conditions: Patient 4 (CFSCH04)
Protocol: as §3, §4, §5

C-reactive protein (CRP) [5] = experiment: Example 1: CRP levels in CF subjects treated with 160 ppm NO; assay type: in vivo, human; conditions: three subjects with baseline CRP greater than 5 mg/L
Protocol: as §3, §4

[6] = test system: methicillin-sensitive S. aureus (MSSA); experiment: Example 1: microbial density in sputum (CFU) during NO inhalation; assay type: in vivo, Staphylococcus aureus; conditions: Patient 3 (CFSCH03)
Protocol: as §3, §4, §5

[7] = Follow-up 2 (2 weeks after Day 10), n=9

[N]=O [NO, nitric oxide]
CRP levels from Day 1 to Day 10 (C-reactive protein (CRP) [1]): decreased | AEs of MetHb elevation greater than 5% or NO2 elevation greater than 5 ppm ([2]; N=9): no AEs | AEs possibly or probably related to treatment, % of subjects ([2]; N=9): 22.2% | Adverse events reported by, % of subjects ([2]; N=9): 55.5% | Severe or serious AEs ([2]; N=9): no severe or serious AEs | maximum MetHb level ([2]; N=9): 4.6% | total AEs reported ([2]; N=9, 20 events in a single subject (SC-01)): 31 | Subjects with MetHb greater than 5% ([2]; entire study treatment period, N=9): no subjects | cases of haemoptysis ([2]; in 2 subjects, all events mild): 7 cases | Cumulative effect on MetHb levels ([2]; over the study treatment period): no “cumulative” effect; also recorded: no cumulative effect | FEF 25-75% Absolute, Mean ([3]; Day 1, n=9): 30.000% | FEF 25-75% Absolute, Median ([3]; Day 1, n=9): 27.000% | FEF 25-75 Absolute, Mean ([3]; Day 1, n=9): 1.151 L/s | FEF 25-75 Absolute, Median ([3]; Day 1, n=9): 1.090 L/s | FEV1/FVC, Mean ([3]; Day 1, n=9): 68.778% | FEV1/FVC, Median ([3]; Day 1, n=9): 69.000% | FEV1 Absolute, Mean ([3]; Day 1, n=9): 1.871 L | FEV1 Absolute, Median ([3]; Day 1, n=9): 1.700 L | FEV1 Predicted, Mean ([3]; Day 1, n=9): 62.222% | FEV1 Predicted, Median ([3]; Day 1, n=9): 64.000% | FVC Absolute, Mean ([3]; Day 1, n=9): 2.756 L | FVC Absolute, Median ([3]; Day 1, n=9): 2.360 L | FVC Predicted, Mean ([3]; Day 1, n=9): 79.889% | FVC Predicted, Median ([3]; Day 1, n=9): 90.000% | FEF 25-75% Absolute, Mean ([3]; Day 10, n=9): 28.111% | FEF 25-75% Absolute, Median ([3]; Day 10, n=9): 22.000% | FEF 25-75 Absolute, Mean ([3]; Day 10, n=9): 1.090 L/s | FEF 25-75 Absolute, Median ([3]; Day 10, n=9): 0.880 L/s | FEV1/FVC, Mean ([3]; Day 10, n=9): 65.111% | FEV1/FVC, Median ([3]; Day 10, n=9): 66.000% | FEV1 Absolute, Mean ([3]; Day 10, n=9): 1.833 L | FEV1 Absolute, Median ([3]; Day 10, n=9): 1.610 L | FEV1 Predicted, Mean ([3]; Day 10, n=9): 60.444% | FEV1 Predicted, Median ([3]; Day 10, n=9): 59.000% | FVC Absolute, Mean ([3]; Day 10, n=9): 2.759 L | FVC Absolute, Median ([3]; Day 10, n=9): 2.340 L | FVC Predicted, Mean ([3]; Day 10, n=9): 79.556% | FVC Predicted, Median ([3]; Day 10, n=9): 84.000% | FEF 25-75% Absolute, Mean [3, 7]: 29.667% | FEF 25-75% Absolute, Median [3, 7]: 23.000% | FEF 25-75 Absolute, Mean [3, 7]: 1.118 L/s | FEF 25-75 Absolute, Median [3, 7]: 0.910 L/s | FEV1/FVC, Mean [3, 7]: 66.000% | FEV1/FVC, Median [3, 7]: 65.000% | FEV1 Absolute, Mean [3, 7]: 1.852 L | FEV1 Absolute, Median [3, 7]: 1.630 L | FEV1 Predicted, Mean [3, 7]: 62.889% | FEV1 Predicted, Median [3, 7]: 60.000% | FVC Absolute, Mean [3, 7]: 2.786 L | FVC Absolute, Median [3, 7]: 2.390 L | FVC Predicted, Mean [3, 7]: 81.889% | FVC Predicted, Median [3, 7]: 85.000% | mean (SD) FEV1 change ([3]; from Day 1 to Day 10, N=9, p=0.992): −0.11% | Lung function indices over time ([3]; throughout the study): no clinically significant changes | FEV1 reduction ([4]; one patient, returned to initial levels after 2 weeks): 11% | changes in FEV1 values ([4]; two of 9 subjects): no significant changes | A. fumigatus CFU counts (A. fumigatus): elimination | decrease in Achromobacter spp. CFU (Achromobacter spp.): 1 log | decrease in nonmucoid P. aeruginosa counts (nonmucoid P. aeruginosa): 1 log | decrease in P. alcaligenes CFUs (P. alcaligenes): 2 log | decrease in mucoid P. aeruginosa counts (mucoid P. aeruginosa): 2 log | reduction in CRP levels after treatment (C-reactive protein (CRP) [5]): 40-60% | MSSA CFU counts [6]: elimination

Reference: patent publication US20170239289A1, “TREATMENT OF INFLAMMATION, RESPIRATORY TRACT INFECTIONS AND CYSTIC FIBROSIS” (Advanced Inhalation Therapies (AIT) Ltd., priority 2014, published 2017)
